Assay results taken from patent US11445724B2, “Insecticidal compounds” (SYNGENTA PARTICIPATIONS AG, priority 2013, dated 2022).

Tests used:
Type in all cases: in vivo
[1] = system: Plutella xylostella (Diamond back moth); assay: Plutella xylostella (Diamond back moth) larval mortality, artificial diet in 24-well MTP; conditions: 144 h, application rate 200 ppm (concentration in well 18 ppm), L2 larvae, larval mortality after 6 days
[2] = system: Spodoptera littoralis (Egyptian cotton leafworm); assay: Spodoptera littoralis (Egyptian cotton leafworm) mortality, sprayed cotton leaf discs; conditions: foliar, 72 h, 200 ppm spray on cotton leaf discs, L1 larvae, mortality 3 DAT
[3] = system: Tetranychus urticae (Two-spotted spider mite); assay: Tetranychus urticae (Two-spotted spider mite) mortality, sprayed bean leaf discs; conditions: foliar, 192 h, 200 ppm spray on bean leaf discs, mixed ages, egg, larval and adult mortality after 8 days
[4] = system: Myzus persicae (Green peach aphid); assay: Myzus persicae (Green peach aphid) mortality, test compounds mixed with Sucrose solution under Parafilm; conditions: 120 h, 12.5 ppm in Sucrose solution, infested pea seedlings on Parafilm, mortality 5 days after infestation
[5] = system: Myzus persicae (Green peach aphid); assay: Myzus persicae (Green peach aphid) mortality, sprayed sunflower leaf discs; conditions: foliar, 144 h, 200 ppm spray on sunflower leaf discs, mixed ages, mortality 6 DAT
[6] = system: Thrips tabaci (Onion thrips); assay: Thrips tabaci (Onion thrips) mortality, sprayed sunflower leaf discs; conditions: foliar, 168 h, 200 ppm spray on sunflower leaf discs, mixed ages, mortality after 7 days
[7] = system: Diabrotica balteata (Corn root worm); assay: Diabrotica balteata (Corn root worm) larval mortality, artificial diet in 24-well MTP; conditions: 120 h, application rate 200 ppm (concentration in well 18 ppm), L2 larvae, larval mortality after 5 days

Cc1ccc(C(=O)Nc2cccc(C(=O)Nc3c(Br)cc(C(F)(C(F)(F)F)C(F)(F)F)cc3OC(F)F)c2F)cc1 [Compound 23]
≥ 80%: pest or weed control at 200 ppm [1] | pest or weed control at 200 ppm [2] | pest or weed control at 200 ppm [3] | pest or weed control at 12.5 ppm [4] | pest or weed control at 200 ppm [5] | pest or weed control at 200 ppm [6] | pest or weed control at 200 ppm [7]

CCN(C(=O)c1ccc(C#N)cc1)c1cccc(C(=O)Nc2c(Cl)cc(C(F)(C(F)(F)F)C(F)(F)F)cc2OC(F)F)c1F [Compound 17]
≥ 80%: pest or weed control at 200 ppm [1] | pest or weed control at 200 ppm [2] | pest or weed control at 200 ppm [3] | pest or weed control at 12.5 ppm [4] | pest or weed control at 200 ppm [5] | pest or weed control at 200 ppm [6] | pest or weed control at 200 ppm [7]

CCN(C(=O)c1ccncc1)c1cccc(C(=O)Nc2c(Br)cc(C(F)(C(F)(F)F)C(F)(F)F)cc2OC(F)F)c1F [Compound 2, N-[3-[[2-bromo-6-(difluoromethoxy)-4-[1,2,2,2-tetrafluoro-1-(trifluoromethyl)ethyl]phenyl]carbamoyl]-2-fluoro-phenyl]-N-ethyl-pyridine-4-carboxamide]
≥ 80%: pest or weed control at 200 ppm [1] | pest or weed control at 200 ppm [2] | pest or weed control at 200 ppm [3] | pest or weed control at 12.5 ppm [4] | pest or weed control at 200 ppm [5] | pest or weed control at 200 ppm [6] | pest or weed control at 200 ppm [7]

CCN(C(=O)c1ccc(F)cc1)c1cccc(C(=O)Nc2c(Cl)cc(C(F)(C(F)(F)F)C(F)(F)F)cc2OC(F)F)c1OC [Compound 156]
≥ 80%: pest or weed control at 200 ppm [1] | pest or weed control at 200 ppm [2] | pest or weed control at 200 ppm [3] | pest or weed control at 12.5 ppm [4] | pest or weed control at 200 ppm [5] | pest or weed control at 200 ppm [6] | pest or weed control at 200 ppm [7]

O=C(Nc1cccc(C(=O)Nc2c(Br)cc(C(F)(C(F)(F)F)C(F)(F)F)cc2OC(F)F)c1F)c1ccc(F)cc1F [Compound 40]
≥ 80%: pest or weed control at 200 ppm [1] | pest or weed control at 200 ppm [2] | pest or weed control at 200 ppm [3] | pest or weed control at 12.5 ppm [4] | pest or weed control at 200 ppm [5] | pest or weed control at 200 ppm [6] | pest or weed control at 200 ppm [7]

O=C(Nc1cccc(C(=O)Nc2c(Br)cc(C(F)(C(F)(F)F)C(F)(F)F)cc2OC(F)F)c1F)c1ccc(F)c(C(F)(F)F)c1 [Compound 27]
≥ 80%: pest or weed control at 200 ppm [1] | pest or weed control at 200 ppm [2] | pest or weed control at 200 ppm [3] | pest or weed control at 12.5 ppm [4] | pest or weed control at 200 ppm [5] | pest or weed control at 200 ppm [6] | pest or weed control at 200 ppm [7]

CCN(C(=O)c1ccccc1)c1cccc(C(=O)Nc2c(Cl)cc(C(F)(C(F)(F)F)C(F)(F)F)cc2OC(F)F)c1F [Compound 119]
≥ 80%: pest or weed control at 200 ppm [1] | pest or weed control at 200 ppm [2] | pest or weed control at 200 ppm [3] | pest or weed control at 12.5 ppm [4] | pest or weed control at 200 ppm [5] | pest or weed control at 200 ppm [6] | pest or weed control at 200 ppm [7]

O=C(Nc1cccc(C(=O)Nc2c(Br)cc(C(F)(C(F)(F)F)C(F)(F)F)cc2OC(F)F)c1F)c1cccc(F)c1F [Compound 38]
≥ 80%: pest or weed control at 200 ppm [1] | pest or weed control at 200 ppm [2] | pest or weed control at 200 ppm [3] | pest or weed control at 12.5 ppm [4] | pest or weed control at 200 ppm [5] | pest or weed control at 200 ppm [6] | pest or weed control at 200 ppm [7]

O=C(Nc1cccc(C(=O)Nc2c(Cl)cc(C(F)(C(F)(F)F)C(F)(F)F)cc2OC(F)F)c1F)c1ccc(F)cc1F [Compound 78]
≥ 80%: pest or weed control at 200 ppm [1] | pest or weed control at 200 ppm [2] | pest or weed control at 200 ppm [3] | pest or weed control at 12.5 ppm [4] | pest or weed control at 200 ppm [5] | pest or weed control at 200 ppm [6] | pest or weed control at 200 ppm [7]

CCN(C(=O)c1ccc(F)cc1F)c1cccc(C(=O)Nc2c(Br)cc(C(F)(C(F)(F)F)C(F)(F)F)cc2OC(F)F)c1F [Compound 109]
≥ 80%: pest or weed control at 200 ppm [1] | pest or weed control at 200 ppm [2] | pest or weed control at 200 ppm [3] | pest or weed control at 12.5 ppm [4] | pest or weed control at 200 ppm [5] | pest or weed control at 200 ppm [6] | pest or weed control at 200 ppm [7]

COc1c(NC(=O)c2ccncc2)cccc1C(=O)Nc1c(Br)cc(C(F)(C(F)(F)F)C(F)(F)F)cc1OC(F)F [Compound 3]
≥ 80%: pest or weed control at 200 ppm [1] | pest or weed control at 200 ppm [2] | pest or weed control at 200 ppm [3] | pest or weed control at 12.5 ppm [4] | pest or weed control at 200 ppm [5] | pest or weed control at 200 ppm [6] | pest or weed control at 200 ppm [7]

COc1c(NC(=O)c2ccc([N+](=O)[O-])cc2)cccc1C(=O)Nc1c(Br)cc(C(F)(C(F)(F)F)C(F)(F)F)cc1OC(F)F [Compound 39]
≥ 80%: pest or weed control at 200 ppm [1] | pest or weed control at 200 ppm [2] | pest or weed control at 200 ppm [3] | pest or weed control at 12.5 ppm [4] | pest or weed control at 200 ppm [5] | pest or weed control at 200 ppm [6] | pest or weed control at 200 ppm [7]

COc1c(NC(=O)c2ccc(F)cc2Cl)cccc1C(=O)Nc1c(Br)cc(C(F)(C(F)(F)F)C(F)(F)F)cc1OC(F)F [Compound 66]
≥ 80%: pest or weed control at 200 ppm [1] | pest or weed control at 200 ppm [2] | pest or weed control at 200 ppm [3] | pest or weed control at 12.5 ppm [4] | pest or weed control at 200 ppm [5] | pest or weed control at 200 ppm [6] | pest or weed control at 200 ppm [7]

CCN(C(=O)c1ccc(C#N)cc1)c1cccc(C(=O)Nc2c(Br)cc(C(F)(C(F)(F)F)C(F)(F)F)cc2OC(F)F)c1F [Compound 10]
≥ 80%: pest or weed control at 200 ppm [1] | pest or weed control at 200 ppm [2] | pest or weed control at 200 ppm [3] | pest or weed control at 12.5 ppm [4] | pest or weed control at 200 ppm [5] | pest or weed control at 200 ppm [6] | pest or weed control at 200 ppm [7]

O=C(Nc1cccc(C(=O)Nc2c(Br)cc(C(F)(C(F)(F)F)C(F)(F)F)cc2OC(F)F)c1F)c1ccccc1F [Compound 83]
≥ 80%: pest or weed control at 200 ppm [1] | pest or weed control at 200 ppm [2] | pest or weed control at 200 ppm [3] | pest or weed control at 12.5 ppm [4] | pest or weed control at 200 ppm [5] | pest or weed control at 200 ppm [6] | pest or weed control at 200 ppm [7]

CCN(C(=O)c1ccc([N+](=O)[O-])cc1)c1cccc(C(=O)Nc2c(Br)cc(C(F)(C(F)(F)F)C(F)(F)F)cc2OC(F)F)c1F [Compound 103]
≥ 80%: pest or weed control at 200 ppm [1] | pest or weed control at 200 ppm [2] | pest or weed control at 200 ppm [3] | pest or weed control at 12.5 ppm [4] | pest or weed control at 200 ppm [5] | pest or weed control at 200 ppm [6] | pest or weed control at 200 ppm [7]

COc1c(NC(=O)c2ccc(C#N)cc2)cccc1C(=O)Nc1c(Cl)cc(C(F)(C(F)(F)F)C(F)(F)F)cc1OC(F)F [Compound 14, N-[2-chloro-6-(difluoromethoxy)-4-[1,2,2,2-tetrafluoro-1-(trifluoromethyl)ethyl]phenyl]-3-[(4-cyanobenzoyl)amino]-2-methoxy-benzamide]
≥ 80%: pest or weed control at 200 ppm [1] | pest or weed control at 200 ppm [2] | pest or weed control at 200 ppm [3] | pest or weed control at 12.5 ppm [4] | pest or weed control at 200 ppm [5] | pest or weed control at 200 ppm [6] | pest or weed control at 200 ppm [7]

COc1c(NC(=O)c2ccc(C#N)cc2)cccc1C(=O)Nc1c(Br)cc(C(F)(C(F)(F)F)C(F)(F)F)cc1OC(F)F [Compound 6]
≥ 80%: pest or weed control at 200 ppm [1] | pest or weed control at 200 ppm [2] | pest or weed control at 200 ppm [3] | pest or weed control at 12.5 ppm [4] | pest or weed control at 200 ppm [5] | pest or weed control at 200 ppm [6] | pest or weed control at 200 ppm [7]

CCN(C(=O)c1ccncc1)c1cccc(C(=O)Nc2c(C)cc(C(F)(C(F)(F)F)C(F)(F)F)cc2OC(F)F)c1F [Compound 101]
≥ 80%: pest or weed control at 200 ppm [1] | pest or weed control at 200 ppm [2] | pest or weed control at 200 ppm [3] | pest or weed control at 12.5 ppm [4] | pest or weed control at 200 ppm [5] | pest or weed control at 200 ppm [6] | pest or weed control at 200 ppm [7]

CCN(C(=O)c1ccc([N+](=O)[O-])cc1)c1cccc(C(=O)Nc2c(Br)cc(C(F)(C(F)(F)F)C(F)(F)F)cc2OC(F)F)c1OC [Compound 162]
≥ 80%: pest or weed control at 200 ppm [1] | pest or weed control at 200 ppm [2] | pest or weed control at 200 ppm [3] | pest or weed control at 12.5 ppm [4] | pest or weed control at 200 ppm [5] | pest or weed control at 200 ppm [6] | pest or weed control at 200 ppm [7]

Cc1cc(C(F)(C(F)(F)F)C(F)(F)F)cc(OC(F)F)c1NC(=O)c1cccc(NC(=O)c2ccncc2)c1F [Compound 100]
≥ 80%: pest or weed control at 200 ppm [1] | pest or weed control at 200 ppm [2] | pest or weed control at 200 ppm [3] | pest or weed control at 12.5 ppm [4] | pest or weed control at 200 ppm [5] | pest or weed control at 200 ppm [6] | pest or weed control at 200 ppm [7]

CCN(C(=O)c1ccc(C#N)cc1)c1cccc(C(=O)Nc2c(Cl)cc(C(F)(C(F)(F)F)C(F)(F)F)cc2OC(F)F)c1OC [Compound 18]
≥ 80%: pest or weed control at 200 ppm [1] | pest or weed control at 200 ppm [2] | pest or weed control at 200 ppm [3] | pest or weed control at 12.5 ppm [4] | pest or weed control at 200 ppm [5] | pest or weed control at 200 ppm [6] | pest or weed control at 200 ppm [7]
